# Measured values reported in US20240024320A1, “METHODS OF TREATING CANCER WITH A COMBINATION OF TUCATINIB AND AN ANTI-PD-1/ANTI-PD-L1 ANTIBODY” (Seagen Inc., priority 2020, published 2024).
# Entries after “also recorded” stand apart in the source; their conditions may differ.
# How the values were obtained:
# Fo5 tumors [1] = assay: ex vivo FACS analysis of trastuzumab resistant Fo5 tumors; assay type: in vivo, FVB mice
# Experimental: Tumors were harvested after 10-14 days of tucatinib 50 mg/kg treatment for Fo5 tumors and analyzed by FACS.
# In vivo mouse studies. Female MMTV/Balb/c and FVB mice between 6 to 8 weeks of age were utilized for experiments. Treatment groups consisted of n=5 to 8 mice per group. […] Randomization and treatment commenced at approximately day 10 post-inoculation for the H2N113 tumor model with tumor sizes varying between 40 to 80 mm^3 and approximately day 14 for the Fo5 tumor model with tumor sizes varying between 60 to 120 mm^3. Tumor volumes were calculated using the equation […], where length and width refer to the larger and smaller dimensions collected at each measurement. […] Immunotherapy and isotype controls in both models were delivered on days 0, 4, 8, and 12. Tumor volumes were measured twice weekly with calipers. Survival was monitored and determined when the tumors reached an ethical limit of 1500 mm^3.
# Flow cytometry analysis. For ex vivo studies, tumors were dissected, mechanically morcellated and passed through 70 μm filters. Cells were then resuspended in 30 μg/mL DNAse (Sigma-Aldrich) followed by Fc block (clone 2.4g2). Single cell suspensions were then stained with antibody cocktails for various TIL subsets. In some experiments, isolated cells were stimulated with phorbol 12-myristate 13-acetate (PMA; 50 ng/mL) and ionomycin (1 μg/mL; Sigma-Aldrich) in the presence of GolgiPlug (BD Biosciences; 1:1000) and GolgiStop (BD Biosciences; 1:1500) for 3 to 4 hours prior to flow cytometry analysis. Samples were analyzed by FACS with either Fixable Yellow or Zombie Red to discriminate viable and dead cells. BD fluorosphere counting beads were added to cocktails before running sample.
# H2N113 tumors [2] = assay type: in vivo
# Fo5 tumors [3] = assay: ex vivo RNA sequencing / gene expression analysis of Fo5 tumors; assay type: in vivo, FVB mice
# Experimental: The harvested tumors were then processed for stranded polyA RNA sequencing. […] Columns represent individual tumor samples and rows are individual genes.
# Genomic analysis of mouse samples. RNA was extracted from Fo5 tumors treated in vivo with tucatinib at 50 mg/kg or vehicle (methyl cellulose, 0.5%) for 10 days using TRIzol® Reagent with the PureLink® RNA Mini Kit (Invitrogen™, Thermo Fisher Scientific, Waltham, MA, USA). Quantity and integrity of the total RNA was checked using a TapeStation 2200 (Agilent Technologies) and 500 ng used for library preparation according to standard protocols (NEBNext Ultra II Directional RNA Library Prep Kit for Illumina and NEBNext Poly(A) mRNA Magnetic Isolation Module, NEB). Indexed libraries were pooled and sequenced on a NextSeq500 flowcell (Illumina) to generate 25-50 million paired-end 75 bp reads per sample. Pre-processing and quantile normalization of microarray data was performed with the AFFY package in R. From normalized RNA intensities, unbiased, differential expression analysis and a short list of gene (FDR<0.05) was generated with the LIMMA package in R. Using the differentially expressed genes, pathway and molecular function enrichment analysis was performed in MetCore GeneCo. The GSEA software for gene set enrichment analysis was used with normalized RNA intensities. The false discovery rate was set at <10%. Top gene pathways were selected based on a P-value of <0.05 and a fold change of >1.5. All analyses were performed using R version 3.5.0. Gene sets for differential expression heat maps included interferon-γ 10-gene, preliminary expanded immune 28-gene, T cell inflamed 18-gene, and T-effector 6-gene signature sets, all of which have been associated with PD-1 or PD-L1 blockade amongst a range of tumor types, including breast cancer.
# Fo5 tumors [4] = assay: Fo5 trastuzumab-resistant HER2-positive murine tumor model: tumor growth and survival; assay type: in vivo, FVB mice
# H2N113 tumors [5] = assay type: in vivo; remark: listed apart in the source
# BT474 = assay: growth inhibition assay (CellTitre-Glo), BT474; assay type: cell-based, human; details: BT474, dose-dependent cell growth inhibition; FIG. 5A
# SKBR3 = assay: growth inhibition assay (CellTitre-Glo), SKBR3; assay type: cell-based, human; details: SKBR3, dose-dependent cell growth inhibition; FIG. 5B
# H2N113 = assay: growth inhibition assay (CellTitre-Glo), H2N113; assay type: cell-based, murine; details: H2N113, dose-dependent cell growth inhibition; FIG. 5C
# HER2 signaling pathway [6] = assay: Western blot for phosphor-HER2 and total HER2, Fo5 tumors; assay type: in vivo, FVB mice; details: Fo5 tumors treated with tucatinib vs vehicle; FIG. 11A
# HER2 signaling pathway [7] = assay: Western blot for phosphor-HER2 and total HER2, H2N113 cells; assay type: cell-based, murine; details: H2N113 cells treated with tucatinib vs vehicle; FIG. 11B
# HER2 = HER2 (Homo sapiens, UniProt P04626); details: cellular signaling assays; background statement; cited from earlier work
# [8] = Example 4, after 10 days of tucatinib, FIG. 16A-16B
# [9] = Example 4, after 10 days of tucatinib, FIG. 16C-16D
# [10] = Example 4, after 14 days of tucatinib treatment
# [11] = Example 4, tucatinib treated tumors
# [12] = tucatinib 100 mg/kg orally once daily, 14 days, FIG. 2L
# HER2, sequence (P04626 23-1255): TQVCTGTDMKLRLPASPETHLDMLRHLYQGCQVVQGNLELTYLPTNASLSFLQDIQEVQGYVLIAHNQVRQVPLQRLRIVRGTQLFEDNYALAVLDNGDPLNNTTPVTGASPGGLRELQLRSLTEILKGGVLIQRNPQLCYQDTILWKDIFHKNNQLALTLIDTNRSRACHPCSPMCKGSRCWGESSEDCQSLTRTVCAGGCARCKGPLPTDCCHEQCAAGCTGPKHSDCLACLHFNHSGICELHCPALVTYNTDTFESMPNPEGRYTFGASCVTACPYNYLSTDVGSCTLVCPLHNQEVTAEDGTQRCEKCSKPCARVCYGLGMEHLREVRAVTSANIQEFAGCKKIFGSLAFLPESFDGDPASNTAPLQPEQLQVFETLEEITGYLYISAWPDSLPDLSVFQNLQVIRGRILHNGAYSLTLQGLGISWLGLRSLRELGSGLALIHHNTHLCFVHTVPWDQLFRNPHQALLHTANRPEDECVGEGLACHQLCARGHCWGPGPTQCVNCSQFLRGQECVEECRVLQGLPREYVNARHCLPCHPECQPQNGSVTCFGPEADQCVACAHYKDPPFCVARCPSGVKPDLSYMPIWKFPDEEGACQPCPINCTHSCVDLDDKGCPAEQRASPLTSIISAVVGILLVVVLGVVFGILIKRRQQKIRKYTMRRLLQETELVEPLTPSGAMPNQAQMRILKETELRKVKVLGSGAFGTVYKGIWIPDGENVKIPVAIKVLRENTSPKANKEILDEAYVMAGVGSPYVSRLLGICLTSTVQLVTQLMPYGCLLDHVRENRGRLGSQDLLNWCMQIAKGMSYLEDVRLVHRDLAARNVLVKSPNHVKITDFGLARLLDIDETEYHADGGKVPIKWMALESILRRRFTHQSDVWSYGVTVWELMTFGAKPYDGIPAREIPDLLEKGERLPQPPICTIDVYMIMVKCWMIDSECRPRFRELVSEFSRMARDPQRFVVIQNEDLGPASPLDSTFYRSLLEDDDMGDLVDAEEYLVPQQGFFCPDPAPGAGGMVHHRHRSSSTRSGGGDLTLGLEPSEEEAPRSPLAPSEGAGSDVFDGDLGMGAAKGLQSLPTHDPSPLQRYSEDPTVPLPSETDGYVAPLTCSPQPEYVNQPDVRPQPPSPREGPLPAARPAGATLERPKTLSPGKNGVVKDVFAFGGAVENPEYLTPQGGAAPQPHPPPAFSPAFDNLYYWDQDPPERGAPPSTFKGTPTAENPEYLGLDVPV
smiles,measurement,setting,value
"Cc1cc(Nc2ncnc3ccc(NC4=NC(C)(C)CO4)cc23)ccc1Oc1ccn2ncnc2c1 [tucatinib, N^4-(4-([1,2,4]triazolo[1,5-a]pyridin-7-yloxy)-3-methylphenyl)-N-(4,4-dimethyl-4,5-dihydrooxazol-2-yl) quinazoline-4,6-diamine]",interferon-7 expression in CD4+ effector memory T cell subset,Fo5 tumors [1]; [8],increased
same,interferon-7 expression in CD8+ effector memory T cell subset,Fo5 tumors [1]; [8],increased
same,PD-1+ expression in CD8+ effector memory T cells,Fo5 tumors [1]; [9],increased
same,granzyme B expression in CD8+ effector memory T cells,Fo5 tumors [1]; [9],increased
same,infiltration of CD8+ T cells expressing PD-1 in the tumor,"Fo5 tumors [1]; tucatinib 50 mg/kg orally once daily, 10-14 days, vs vehicle, FIG. 1A",increase
same,infiltration of CD8+ T cells expressing IFNγ in the tumor,"Fo5 tumors [1]; tucatinib 50 mg/kg orally once daily, 10-14 days, vs vehicle, FIG. 1B",increase
same,infiltration of CD8+ T cells expressing FOXP3 in the tumor,"Fo5 tumors [1]; tucatinib 50 mg/kg orally once daily, 10-14 days, vs vehicle, FIG. 1C",increase
same,CD4+ to CD8+ T cell ratio in the tumor,"Fo5 tumors [1]; tucatinib 50 mg/kg orally once daily, 10-14 days, vs vehicle, FIG. 1D",moderate increase
same,CD8+ effector memory (CD44+CD62L−) T cell frequency as a percentage of total CD8+,H2N113 tumors [2]; [10],increased
same,PD-1+ expression of CD8+ effector memory T cells,H2N113 tumors [2]; [10],significantly higher
same,TIM3+ expression of CD8+ effector memory T cells,H2N113 tumors [2]; [10],significantly higher
same,CD8+ proportion,"H2N113 tumors [2]; Example 4, after 14 days of tucatinib treatment vs vehicle",increased
same,expression of Ki67 in CD8+ effector memory T cells,"H2N113 tumors [2]; Example 4, day 14, FIG. 13A",increased expression
same,interferon-7 expression in CD8+ effector memory T cells compared to vehicle treated controls,"H2N113 tumors [2]; Example 4, day 14, FIG. 13B",significantly greater
same,CD49b+ natural killer cell population proportion of CD45+CD3− lymphocytes,"H2N113 tumors [2]; Example 4, day 14, FIG. 14",significantly increased
same,CD103+ dendritic cells,H2N113 tumors [2]; [11],significant increase
same,MHC II+ macrophages,H2N113 tumors [2]; [11],significant increase
same,granulocytic MDSC as proportion of CD45.2+ lymphocytes,H2N113 tumors [2]; [11],significant decrease
same,neutrophils (CD11c-F4/80-CD11b+Ly6G+Ly6C+) as proportion of CD45.2+ lymphocytes,H2N113 tumors [2]; [11],significant decrease
same,suppressive MHC II low macrophages as proportion of CD45.2+ lymphocytes,H2N113 tumors [2]; [11],significant decrease
same,PD-L1 expression on CD45+ cells (total TILs),"H2N113 tumors [2]; Example 4, tucatinib vs vehicle treated TILs, FIG. 15A-15B",increased intensity
same,infiltration of natural killer (NK) cells in the tumor,"H2N113 tumors [2]; tucatinib 100 mg/kg orally once daily, 14 days",increase
same,infiltration of CD8+ T cells in the tumor,"H2N113 tumors [2]; tucatinib 100 mg/kg orally once daily, 14 days, vs vehicle, FIG. 2A",increase
same,infiltration of CD4+ T cells not expressing FOXP3 in the tumor,"H2N113 tumors [2]; tucatinib 100 mg/kg orally once daily, 14 days, FIG. 2B",increase
same,infiltration of CD4+ T cells expressing FOXP3 in the tumor,"H2N113 tumors [2]; tucatinib 100 mg/kg orally once daily, 14 days, FIG. 2C",increase
same,infiltration of CD8+ T cells expressing Ki67 in the tumor,"H2N113 tumors [2]; tucatinib 100 mg/kg orally once daily, 14 days, FIG. 2D",increase
same,infiltration of CD8+ T cells expressing IFNγ in the tumor,"H2N113 tumors [2]; tucatinib 100 mg/kg orally once daily, 14 days, FIG. 2E",increase
same,infiltration of CD8+ T cells expressing PD-1 in the tumor,"H2N113 tumors [2]; tucatinib 100 mg/kg orally once daily, 14 days, FIG. 2F",increase
same,infiltration of CD8+ T cells expressing OX40 in the tumor,"H2N113 tumors [2]; tucatinib 100 mg/kg orally once daily, 14 days, FIG. 2G",increase
same,infiltration of CD8+ T cells expressing TIM3 in the tumor,"H2N113 tumors [2]; tucatinib 100 mg/kg orally once daily, 14 days, FIG. 2H",increase
same,infiltration of neutrophils in the tumor,"H2N113 tumors [2]; tucatinib 100 mg/kg orally once daily, 14 days, FIG. 2J",decrease
same,percentage of CD11 b dendritic cells in the tumor,"H2N113 tumors [2]; tucatinib 100 mg/kg orally once daily, 14 days, FIG. 2K",increase
same,percentage of MHC-II high in the tumor,H2N113 tumors [2]; [12],increase
same,percentage of MHC-II low in the tumor,H2N113 tumors [2]; [12],decrease
same,genes associated with favorable clinical response to checkpoint inhibitors,"Fo5 tumors [3]; day 10 post treatment, differential gene expression, FIG. 21A-21D",upregulation
same,genes related to immune cell function,"Fo5 tumors [3]; day 10 post treatment, tucatinib 50 mg/kg vs vehicle, FIG. 17, 18A-18B",significant upregulation
same,genes related to antigen presentation,"Fo5 tumors [3]; day 10 post treatment, tucatinib 50 mg/kg vs vehicle, FIG. 19, 20A-20B",significant upregulation
same,"expression of genes predictive of response to immunotherapy (IFNγ-related gene expression signature, expanded immune signature)","Fo5 tumors [3]; stranded polyA RNA sequencing, tucatinib vs vehicle, FIG. 3A, 3B",increased expression
same,tumor growth,"Fo5 tumors [4]; tucatinib 25, 50, 100 mg/kg orally once daily vs vehicle, p<0.05",significantly inhibited tumor growth in a dose-dependent manner; also recorded: significant dose-dependent tumor growth inhibition
same,survival,"Fo5 tumors [4]; tucatinib at increasing doses vs vehicle, FIG. 9B",improved survival
same,tumor growth,H2N113 tumors [5]; tucatinib at increasing doses by oral gavage vs vehicle,significant dose-dependent tumor growth inhibition
same,survival,"H2N113 tumors [5]; tucatinib at increasing doses vs vehicle, FIG. 8B",improved survival
same,GI50 at 72 hours,BT474,nanomolar range
same,GI50 at 72 hours,SKBR3,nanomolar range
same,GI50 at 72 hours,H2N113,nanomolar range
same,HER2 signaling pathway (phosphor-HER2 and total HER2),HER2 signaling pathway [6],Inhibition of the HER2 signaling pathway
same,HER2 signaling pathway (phosphor-HER2 and total HER2),HER2 signaling pathway [7],Inhibition of the HER2 signaling pathway
same,selectivity for HER2 compared to the closely related kinase EGFR,HER2,> 1000 fold
